Results: ChEMBL document CHEMBL3045998, “QSAR analysis of 2-benzoxazolyl hydrazone derivatives for anticancer activity and its possible target prediction” (Med Chem Res, 2012)

How the values were obtained:
Assay type in all cases: functional, cell-based
[1] = Cytotoxicity against Homo sapiens (human) Burkitt lymphoma cells assessed as growth inhibition
CCRF-CEM = experiment: Cytotoxicity against Homo sapiens (human) CCRF-CEM cells assessed as growth inhibition
HeLa = experiment: Cytotoxicity against Homo sapiens (human) HeLa cells assessed as growth inhibition

Compound `C(=N\Nc1nc2ccccc2o1)/c1ccccn1` has an IC50 ([1]; read-out: IC50) of 5 nM and an IC50 ([1]; read-out: pIC50 (converted)) of 5.01 nM.
With `C/C(=N\Nc1nc2ccccc2o1)c1cnc(C)cn1` the IC50 ([1]; read-out: IC50) was 150 nM and the IC50 ([1]; read-out: pIC50 (converted)) was 151 nM.
With `CC(C)(C)/C(=N\Nc1nc2ccccc2o1)c1ccccn1` the IC50 ([1]; read-out: IC50) was greater than 10000 nM.
`C/C(=N\N(C)c1nc2ccccc2o1)c1ccccn1` showed an IC50 ([1]; read-out: IC50) greater than 50000 nM.
`C/C(=N\Nc1nc2ccccc2o1)c1nccnc1C` showed an IC50 (CCRF-CEM) of 129 nM, an IC50 (HeLa) of 186 nM and an IC50 ([1]; read-out: IC50) of 900 nM. For the same compound, the IC50 ([1]; read-out: pIC50 (converted)) was 891 nM.
With `CCC/C(=N\Nc1nc2ccccc2o1)c1ccccn1` the IC50 ([1]; read-out: IC50) was 6 nM and the IC50 ([1]; read-out: pIC50 (converted)) was 6.03 nM.
With `c1ccc(/C(=N\Nc2nc3ccccc3o2)c2ccccn2)cc1` the IC50 ([1]; read-out: IC50) was 120 nM and the IC50 ([1]; read-out: pIC50 (converted)) was 120 nM.
`C/C(=N\Nc1nc2ccccc2o1)c1cccnn1` showed an IC50 ([1]; read-out: IC50) of 1300 nM and an IC50 ([1]; read-out: pIC50 (converted)) of 1290 nM.
With `C/C(=N\Nc1nc2ccccc2o1)c1cc2ccccc2cn1` the IC50 ([1]; read-out: IC50) was 30 nM and the IC50 ([1]; read-out: pIC50 (converted)) was 30.2 nM.
`c1ccc(C(=NNc2nc3ccccc3o2)c2ccccn2)nc1` showed an IC50 ([1]; read-out: IC50) of 12 nM and an IC50 ([1]; read-out: pIC50 (converted)) of 12 nM.
`C/C(=N\Nc1nc2ccccc2o1)c1ncccn1` showed an IC50 ([1]; read-out: IC50) of 30 nM and an IC50 ([1]; read-out: pIC50 (converted)) of 30.2 nM.
For `C/C(=N\Nc1nc2ccccc2o1)c1nccc2ccccc12`, the IC50 ([1]; read-out: IC50) was 200 nM and the IC50 ([1]; read-out: pIC50 (converted)) was 200 nM.
Compound `C/C(=N\Nc1nc2ccccc2o1)c1ccncn1` has an IC50 ([1]; read-out: IC50) of 144 nM and an IC50 ([1]; read-out: pIC50 (converted)) of 145 nM.
Compound `C/C(=N\Nc1nc2ccccc2o1)c1ccc2ccccc2n1` has an IC50 ([1]; read-out: IC50) of 5490 nM and an IC50 ([1]; read-out: pIC50 (converted)) of 5500 nM.
For `C/C(=N\Nc1nc2ccccc2o1)c1cc(C)ncn1`, the IC50 ([1]; read-out: IC50) was 42 nM and the IC50 ([1]; read-out: pIC50 (converted)) was 41.7 nM.
`C/C(=N\Nc1nc2ccccc2o1)c1cccnc1` showed an IC50 ([1]; read-out: IC50) greater than 100000 nM.
For `c1ccc(/C(=N/Nc2nc3ccccc3o2)C2CC2)nc1`, the IC50 ([1]; read-out: IC50) was 185 nM and the IC50 ([1]; read-out: pIC50 (converted)) was 186 nM.
In the case of `CC/C(=N\Nc1nc2ccccc2o1)c1ccccn1`, the IC50 (HeLa) is reported as 51.3 nM, the IC50 ([1]; read-out: IC50) is reported as 2 nM and the IC50 ([1]; read-out: pIC50 (converted)) is reported as 2 nM.
`C/C(=N\Nc1nc2ccccc2o1)c1ccc(C)nn1` gave an IC50 ([1]; read-out: IC50) of 6270 nM and an IC50 ([1]; read-out: pIC50 (converted)) of 6310 nM.
For `CC(C)/C(=N\Nc1nc2ccccc2o1)c1ccccn1`, the IC50 ([1]; read-out: IC50) was 14 nM and the IC50 ([1]; read-out: pIC50 (converted)) was 14.1 nM.
Compound `c1ccc(C/C(=N\Nc2nc3ccccc3o2)c2ccccn2)cc1` has an IC50 ([1]; read-out: IC50) greater than 10000 nM.
With `C/C(=N\Nc1nc2ccccc2o1)c1cccc[n+]1[O-]` the IC50 ([1]; read-out: IC50) was 27 nM and the IC50 ([1]; read-out: pIC50 (converted)) was 26.9 nM.
Work on `C/C(=N\Nc1nc2ccccc2o1)c1ccccn1` yielded an IC50 ([1]; read-out: IC50) of 9 nM and an IC50 ([1]; read-out: pIC50 (converted)) of 8.91 nM.
